Experimental findings from patent publication US10711000B2 (Fronthera U.S. Pharmaceuticals LLC, priority 2018, dated 2020) are described below.

The nature of data set [1]: Pharmacokinetics in beagle dogs. Conditions: male, dog, plasma, po, P.O. (1 mg/kg). Type of data set: in vivo. The source says:
The pharmacokinetics and pharmacodynamics of test compounds after a single oral dose were investigated in SD rats, Beagle dog and Cynomolgus monkey. SD Rats (200-250 g) were purchased from Beijing Vital River Laboratory Animal Technology Co., Ltd. Male Beagle Dog, 6-9 kg, were purchased from Beijing Mashall. Male Cynomolgus monkeys, 3-5 kg, were purchased from Suzhou Xishan Zhongke Drugs Research and Development Co., Ltd. Following arrival, the animals were acclimated for 7 days in individual cages maintained at ambient temperature, 34 to 68% relative humidity, and 12-h light/dark cycles. Just prior to dose administration the rats were fasted overnight with free access to water. Animals were given 10 mL/kg of formulated compound in 0.5% methylcellulose (MC) by oral gavage, and the animals were fed four hours after dosing. The animals were manually restrained at the designated time points (pre-dose, 0.5, 1, 3, 6, 9, 12, and 24 h post-dose) to collect blood. Approximately 120 μL of blood was collected via orbital sinus into K2EDTA tubes. The blood samples were centrifuged at 5000 rpm for 10 min at 4° C. to obtain plasma samples.
To determine the compound concentration in the plasma samples, a 10× calibration standard of compound were prepared by serial dilution in DMSO: 20000, 10000, 5000, 2000, 1000, 500, 200, 100, 50, 20, and 10 ng/mL. 3 μL of calibration standard solution was added into 27.0 μL of blank plasma in 1.5-mL microcentrifuge tubes to generate 1× calibration standards. The 30.0 μL of standards or study plasma was mixed with 200 μL of acetonitrile (containing 5 ng/mL verapamil for internal control) in a 1.5-mL microcentrifuge tube. After vertexing for 1 minute and centrifuging at 10000 rpm for 10 min, 180 μL of supernatant was transferred into a 96-well plate and the compound concentration in the plasma was quantitated using LC/MS/MS together with standards. Briefly, 1 μL of the solutions were injected for LC-MS/MS analysis using an Agilent Zorbax C18 column (50×2.1 mm, 3.5 μm) with mobile phase A [5 mM NH4Ac (0.1% FA)] and phase B [Methanol (0.1% FA)]. Mass spectrometer parameters optimization for compound was performed by infusing standard diluted at 1 μg/mL in water/methanol (1/1, v/v) directly in the ionization source at a flow of 10 μL/min. Quantitative data were acquired in multiple reaction monitoring (MRM) positive APCI mode.

Another data set has as its target T1, CYP 1A2 (Homo sapiens, UniProt P05177).
T1 construct: from tissue; host or cells: human liver microsomes
T1 sequence (P05177 1-516): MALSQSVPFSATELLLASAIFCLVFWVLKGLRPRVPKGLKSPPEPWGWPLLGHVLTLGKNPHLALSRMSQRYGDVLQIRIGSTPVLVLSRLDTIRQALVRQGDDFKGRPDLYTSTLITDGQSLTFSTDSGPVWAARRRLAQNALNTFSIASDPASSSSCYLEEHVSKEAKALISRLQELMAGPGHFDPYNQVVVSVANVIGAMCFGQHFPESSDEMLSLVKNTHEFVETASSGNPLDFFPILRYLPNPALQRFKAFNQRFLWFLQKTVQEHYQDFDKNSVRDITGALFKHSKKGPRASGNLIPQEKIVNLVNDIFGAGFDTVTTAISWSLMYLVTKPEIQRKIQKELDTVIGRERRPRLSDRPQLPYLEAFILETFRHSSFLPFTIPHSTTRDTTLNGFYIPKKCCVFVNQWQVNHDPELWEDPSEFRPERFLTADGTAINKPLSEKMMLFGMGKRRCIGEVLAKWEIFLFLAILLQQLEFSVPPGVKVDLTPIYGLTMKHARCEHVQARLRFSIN
Description: CYP inhibition in human liver microsome. Type of data set: in vitro ADME. Conditions: human liver microsomes, substrate phenacetin (10 μM); compounds diluted 1:3 starting at 50 μM; read-out: IC50 in CYP isozyme 1A2. Here is the method: (§1) Test compounds were evaluated for CYP inhibition using human liver microsomes (HLM). Test compounds were 1:3 serially diluted starting at 50 μM to generate 7 different concentrations. After incubation of diluted test compounds with HLM, a substrate cocktail composed of phenacetin (10 μM), amodiaquine (2 μM), diclofenac (5 μM), s-mephenytoin (30 μM), dextromethorphan (5 μM), and midazolam (2 μM) was added to check the remaining CYP activity for CYP 1A2, 2C8, 2C9, 2C19, 2D6 and 3A4. The CYP activity was measured by detecting the peak area of individual metabolites of know CYP substrates using LC/MS/MS. A percentage of inhibition of CYP was calculated at each final concentration of test compound, through which an IC50 was fitted to represent the inhibition potential.
(In general: Microsomes from liver hold many membrane-bound enzymes, among them those of drug oxidation.)

The target of the next data set is T2, CYP 2C19 (Homo sapiens, UniProt P33261).
T2 construct: from tissue; host or cells: human liver microsomes
Description: CYP inhibition in human liver microsome. Type of data set: in vitro ADME. As to conditions: human liver microsomes, substrate s-mephenytoin (30 μM); compounds diluted 1:3 starting at 50 μM; read-out: IC50 in CYP isozyme 2C19. The procedure:
as §1

The next data set has as its target T3, CYP 2C9 (Homo sapiens, UniProt P11712).
T3 construct: from tissue; host or cells: human liver microsomes
Description: CYP inhibition in human liver microsome. Conditions: human liver microsomes, substrate diclofenac (5 μM); compounds diluted 1:3 starting at 50 μM; read-out: IC50 in CYP isozyme 2C9. Type of data set: in vitro ADME. Here is the method: as §1

For another data set, the target named is T4, CYP 2D6 (Homo sapiens, UniProt P10635).
T4 construct: from tissue; host or cells: human liver microsomes
Description: CYP inhibition in human liver microsome. The format is in vitro ADME. As to conditions: human liver microsomes, substrate dextromethorphan (5 μM); compounds diluted 1:3 starting at 50 μM; read-out: IC50 in CYP isozyme 2D6. Here is the method:
as §1

The target in a further data set is T5, CYP 3A4 (Homo sapiens, UniProt P08684).
T5 construct: from tissue; host or cells: human liver microsomes
Description: CYP inhibition in human liver microsome. The format is in vitro ADME. As to conditions: human liver microsomes, substrate midazolam (2 μM); compounds diluted 1:3 starting at 50 μM; read-out: IC50 in CYP isozyme 3A4. Here is the method: as §1

Data set [2] can be described thus: Pharmacokinetics in beagle dogs. The format is in vivo. As to conditions: male, dog, plasma, iv, I.V. (1 mg/kg).

The structures appear in SMILES notation.

T2 sequence (P33261 whole entry): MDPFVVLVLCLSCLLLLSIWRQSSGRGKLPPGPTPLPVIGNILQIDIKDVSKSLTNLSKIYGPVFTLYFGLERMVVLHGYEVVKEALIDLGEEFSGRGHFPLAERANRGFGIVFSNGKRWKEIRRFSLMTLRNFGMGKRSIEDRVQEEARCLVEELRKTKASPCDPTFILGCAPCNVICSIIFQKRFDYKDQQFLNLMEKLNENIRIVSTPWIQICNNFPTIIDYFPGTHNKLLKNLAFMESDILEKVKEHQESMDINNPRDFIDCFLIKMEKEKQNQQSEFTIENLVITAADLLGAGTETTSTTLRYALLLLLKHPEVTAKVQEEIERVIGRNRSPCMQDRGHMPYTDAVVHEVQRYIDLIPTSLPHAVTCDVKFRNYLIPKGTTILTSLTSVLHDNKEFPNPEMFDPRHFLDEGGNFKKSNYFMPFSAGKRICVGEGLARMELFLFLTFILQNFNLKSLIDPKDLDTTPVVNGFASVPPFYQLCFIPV
T4 sequence (P10635 whole entry): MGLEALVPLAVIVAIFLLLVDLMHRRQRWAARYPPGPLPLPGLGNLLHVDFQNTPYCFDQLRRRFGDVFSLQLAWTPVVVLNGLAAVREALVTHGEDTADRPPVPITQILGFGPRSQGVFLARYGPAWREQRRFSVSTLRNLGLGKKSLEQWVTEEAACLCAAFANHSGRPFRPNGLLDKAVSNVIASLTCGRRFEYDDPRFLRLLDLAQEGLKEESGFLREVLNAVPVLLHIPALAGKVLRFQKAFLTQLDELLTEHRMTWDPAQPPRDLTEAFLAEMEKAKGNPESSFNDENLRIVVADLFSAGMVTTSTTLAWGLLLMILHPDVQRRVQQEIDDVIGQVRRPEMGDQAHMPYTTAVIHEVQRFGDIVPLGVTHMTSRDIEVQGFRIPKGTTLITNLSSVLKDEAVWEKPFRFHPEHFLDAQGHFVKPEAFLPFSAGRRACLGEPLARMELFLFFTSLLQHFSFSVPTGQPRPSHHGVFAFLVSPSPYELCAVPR
T5 sequence (P08684 whole entry): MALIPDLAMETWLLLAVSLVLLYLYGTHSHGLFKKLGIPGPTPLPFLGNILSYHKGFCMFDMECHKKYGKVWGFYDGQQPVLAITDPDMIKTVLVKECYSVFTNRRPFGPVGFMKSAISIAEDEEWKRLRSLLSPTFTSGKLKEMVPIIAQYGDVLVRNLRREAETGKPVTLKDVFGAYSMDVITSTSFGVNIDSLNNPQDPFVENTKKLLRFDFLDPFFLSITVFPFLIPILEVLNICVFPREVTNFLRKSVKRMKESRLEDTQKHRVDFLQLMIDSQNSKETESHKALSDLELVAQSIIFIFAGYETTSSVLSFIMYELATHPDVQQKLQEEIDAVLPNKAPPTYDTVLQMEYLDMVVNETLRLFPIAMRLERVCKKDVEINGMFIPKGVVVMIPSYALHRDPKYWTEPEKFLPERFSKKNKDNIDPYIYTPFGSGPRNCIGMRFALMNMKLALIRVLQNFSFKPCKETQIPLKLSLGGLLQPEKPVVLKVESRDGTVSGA
T3 sequence (P11712 whole entry): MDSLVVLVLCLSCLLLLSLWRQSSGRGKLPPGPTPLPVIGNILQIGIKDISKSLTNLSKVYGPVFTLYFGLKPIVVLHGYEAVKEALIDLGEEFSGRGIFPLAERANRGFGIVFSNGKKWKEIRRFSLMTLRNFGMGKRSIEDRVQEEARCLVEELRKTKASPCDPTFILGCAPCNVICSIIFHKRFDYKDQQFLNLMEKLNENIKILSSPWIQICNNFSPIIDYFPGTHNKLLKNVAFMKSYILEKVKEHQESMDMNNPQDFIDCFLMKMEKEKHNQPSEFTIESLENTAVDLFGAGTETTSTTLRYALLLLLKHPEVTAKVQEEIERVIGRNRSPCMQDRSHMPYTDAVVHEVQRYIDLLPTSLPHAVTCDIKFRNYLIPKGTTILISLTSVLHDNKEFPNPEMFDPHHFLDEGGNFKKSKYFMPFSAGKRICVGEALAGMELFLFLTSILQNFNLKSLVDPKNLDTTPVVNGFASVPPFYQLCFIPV

A word on the AUC: it is concentration integrated over time. As usually defined, the Cmax is the peak of the concentration-time curve. Broadly, the bioavailability is the share of a dose that reaches the circulation, judged against a reference dose that is usually intravenous. Higher therefore signals much systemic uptake. What is called half-life is how long it takes for the measured level to halve. Usually IC50 stands for the concentration that gives 50% inhibition. In general, clearance refers to the rate of elimination divided by the concentration. A lower clearance goes with inefficient removal. With `CCn1nc2ncc(N3CC4(CN(C(=O)C5CCOCC5)C4)C3)cc2c1N(C)c1nc(-c2ccc(F)cc2)c(C#N)s1` [Compound 118, 2-((2-ethyl-5-(6-(tetrahydro-2H-pyran-4-carbonyl)-2,6-diazaspiro[3.3]heptan-2-yl)-2H-pyrazolo[3,4-b]pyridin-3-yl)(methyl)amino)-4-(4-fluorophenyl)thiazole-5-carbonitrile], the results for the AUC in data set [1] and in data set [2] were 900 ± 305 ng·h/mL and 2190 ± 378 ng·h/mL, respectively. Besides, in data set [1], the peak concentration (Cmax) came out at 165 ± 40 ng/mL. For the same molecule, the bioavailability in data set [1] is 40.7 ± 14%. Also, the half-life is 3.99 ± 0.89 h in data set [1] and 3.35 ± 0.6 h in data set [2]. Moreover, the half-inhibitory concentration (IC50) on CYP 1A2 was over 50 µM; on CYP 2C19 it was over 50 µM; at CYP 2C9 it was 15.9 µM; on CYP 2D6, over 50 µM; on CYP 3A4, over 50 µM. The molecule further showed a C0 in data set [2] of 786 ± 62 ng/mL. In data set [2], this molecule returned a clearance of 7.68 ± 1.2 mL/min/kg.

Take `CCc1nn2cc(F)c(N3CCN(CC(=O)N4CC(O)C4)CC3)cc2c1N(C)c1nc(-c2ccc(F)cc2)c(C#N)s1` [Example 101, 2-[[2-ethyl-6-fluoro-5-[4-[2-(3-hydroxyazetidin-1-yl)-2-oxo-ethyl]piperazin-1-yl]pyrazolo[1,5-a]pyridin-3-yl]-methyl-amino]-4-(4-fluorophenyl)thiazole-5-carbonitrile]: the AUC in data set [1] was 4020 ± 549 ng·h/mL; in data set [2], 10700 ± 1810 ng·h/mL. Further, in data set [1], the Cmax worked out at 425 ± 68 ng/mL. This molecule gave a bioavailability in data set [1] of 36.1 ± 4.9%. The figures for the half-life in data set [1] and in data set [2] were 4.69 ± 0.17 h and 5.06 ± 0.85 h, respectively. In addition, the half-maximal inhibitory concentration (IC50) was over 50 µM on CYP 1A2; 45.5 µM at CYP 2C19; 17.3 µM at CYP 2C9; over 50 µM on CYP 2D6; over 50 µM at CYP 3A4. In addition, the C0 in data set [2] was found to be 2290 ± 172 ng/mL. Besides, in data set [2], the clearance stood at 1.53 ± 0.27 mL/min/kg.

In data set [1], `CCc1nn2cc(F)c(N3CC4(CN(C(=O)[C@H]5CCOC5)C4)C3)cc2c1N(C)c1nc(-c2ccc(F)cc2)c(C#N)s1` [Example 102, 2-[[2-ethyl-6-fluoro-5-[2-[(3S)-tetrahydrofuran-3-carbonyl]-2,6-diazaspiro[3.3]heptan-6-yl]pyrazolo[1,5-a]pyridin-3-yl]-methyl-amino]-4-(4-fluorophenyl)thiazole-5-carbonitrile] showed an exposure (AUC) of 2190 ± 325 ng·h/mL, a Cmax of 192 ± 26 ng/mL, a bioavailability of 33.9 ± 5% and a half-life of 20.4 ± 6.1 h. Besides, the half-maximal inhibitory concentration (IC50) on CYP 1A2 is 13.9 µM. The IC50 on CYP 2C19 was found to be 11.9 µM. Also, on CYP 2C9, the IC50 is 5.69 µM. Also, the IC50 at CYP 2D6 was over 50 µM. The concentration for half-maximal inhibition (IC50) on CYP 3A4 was over 50 µM. In data set [2], this molecule had an AUC of 6480 ± 703 ng·h/mL, a C0 of 1070 ± 34.4 ng/mL, a clearance of 1.85 ± 0.28 mL/min/kg and a half-life of 14.8 ± 0.57 h.

Turning to `CCc1nc2c(C)cc(N3CCN(CC(=O)N4CC(O)C4)CC3)cn2c1N(C)c1nc(-c2ccc(F)cc2)c(C#N)s1` [GLPG1690], the exposure (AUC) worked out at 5760 ± 672 ng·h/mL in data set [1] and 8650 ± 328 ng·h/mL in data set [2]. This molecule also registered a maximum concentration (Cmax) in data set [1] of 1130 ± 229 ng/mL. Moreover, in data set [1], the bioavailability stood at 66.2 ± 7.5%. The half-life in data set [1] is 3.04 ± 0.77 h; in data set [2] it was 2.11 ± 1.23 h. Further, the IC50 at CYP 1A2 was over 50 µM; at CYP 2C19, 40.2 µM; at CYP 2C9, 16.7 µM; on CYP 2D6, over 50 µM; on CYP 3A4, 13.5 µM. The C0 in data set [2] stood at 5120 ± 1380 ng/mL. For the same molecule, in data set [2], the clearance was 1.91 ± 0.07 mL/min/kg.
